From US20020137929A1, “1 - (3-heterocyclylphenyl) isothiourea, -isourea, -guanidine and -amidine herbicidal agents” (Intellectual Property Department, BASF Aktiengesellschaft, priority 1998, published 2002)

Assays:
GALAP (Galium) [1] = assay: Postemergence herbicidal evaluation; format: in vivo, Galium aparine; details: postemergence
Procedure, shortened: (§1)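 Two-week-old seedlings sprayed with compound in 50/50 acetone/water plus 0.5% TWEEN 20, at about 0.0156 to 0.500 kg/ha, nozzle at 40 psi. Kept in greenhouse; rated visually 4-5 weeks after treatment on a 0-9 scale versus control, repeat tests averaged.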

CYPSE (Flatsedge) = assay: Preemergence weed control under flooded paddy conditions; format: in vivo, Cyperus serotinus; details: rated 3-4 weeks after treatment
Procedure, shortened: (§2)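 Flooded-pot preemergence screen with silt loam and seeds in the upper 0.5 cm. Dose about 0.0313 to 0.500 kg/ha, delivered into flood water; visual 0-9 score after 3 to 4 weeks.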

ORYSAT (Rice, Tebonnet) = assay: Postemergence herbicidal evaluation; format: in vivo, Oryza sativa, (L.) Tebonnet; details: postemergence
Procedure, shortened: as §1

GALAP (Galium) [2] = assay: Preemergence herbicidal evaluation; format: in vivo, Galium aparine; details: rated 4-5 weeks after treatment
Procedure, shortened: (§3)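 Herbicidal effect scored visually, 0-9, at 4 to 5 weeks against a control; compound applied preemergence by aqueous acetone spray to seeded soil at about 0.0156 to 0.500 kg/ha.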

CASOB (Sicklepod) [3] = assay: Preemergence herbicidal evaluation; format: in vivo, Cassia obtusifolia; details: rated 4-5 weeks after treatment
Procedure, shortened: as §3

CYPIR (Rice Flatsedge) = assay: Preemergence weed control under flooded paddy conditions; format: in vivo, Cyperus iria; details: rated 3-4 weeks after treatment
Procedure, shortened: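 First, seeds or propagules go into the top 0.5 cm of silt loam; next, water is held 1.5 to 3 cm over the soil; then compound (50/50 acetone/water) is pipetted into it at about 0.0313 to 0.500 kg/ha; finally plants are rated visually 0-9 after three to four weeks.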

SETVI (Foxtail, Green) = assay: Postemergence herbicidal evaluation; format: in vivo, Setaria viridis; details: postemergence
Procedure, shortened: as §1

ECHCG (Barnyardgrass) = assay: Postemergence herbicidal evaluation; format: in vivo, Echinochloa crus-galli; details: postemergence
Procedure, shortened: as §1

[4] = system: CHEAL (Lambsquarters, Common); assay: Postemergence herbicidal evaluation; format: in vivo, Chenopodium album; details: postemergence
Procedure, shortened: as §1

CASOB (Sicklepod) [5] = assay: Postemergence herbicidal evaluation; format: in vivo, Cassia obtusifolia; details: postemergence
Procedure, shortened: as §1

AMBEL (Ragweed, Common) = assay: Postemergence herbicidal evaluation; format: in vivo, Ambrosia artemisifolia; details: postemergence
Procedure, shortened: as §1

[6] = system: SAGPY (Arrowhead (Pygmaea)); assay: Preemergence weed control under flooded paddy conditions; format: in vivo, Sagittaria pygmaea; details: rated 3-4 weeks after treatment
Procedure, shortened: as §2

ZEAMX (Corn, Field) = assay: Preemergence herbicidal evaluation; format: in vivo, Zea mays; details: rated 4-5 weeks after treatment
Procedure, shortened: as §3

[7] = system: GLXMAW (Soybean, Williams); assay: Postemergence herbicidal evaluation; format: in vivo, Glycine max, (L.) Merr. cv Williams; details: postemergence
Procedure, shortened: as §1

COCCOC(=O)CN1C(=O)CSC1=Nc1cc(-n2c(=O)cc(C(F)(F)F)n(C)c2=O)c(F)cc1Cl [Compound 107, 2-Methoxyethyl 2-{{2-chloro-5-[3,6-dihydro-3-methyl-2,6-dioxo-4-(trifluoromethyl)-1(2H)-pyrimidinyl]-4-fluorophenyl}imino}-4-oxo-3-thiazolidineacetate]
herbicidal rating GALAP (GALAP (Galium) [1]; rate 0.0158 kg/ha): 0.0
herbicidal rating GALAP (GALAP (Galium) [1]; rate 0.0315 kg/ha): 0.0
herbicidal rating GALAP (GALAP (Galium) [1]; rate 0.0630 kg/ha): 0.0
CYPSE herbicidal effect rating (CYPSE (Flatsedge); 0.0313 kg/ha): 0.0
CYPSE herbicidal effect rating (CYPSE (Flatsedge); 0.0625 kg/ha): 0.0
CYPSE herbicidal effect rating (CYPSE (Flatsedge); 0.1250 kg/ha): 0.0
herbicidal rating ORYSAT (ORYSAT (Rice, Tebonnet); rate 0.0158 kg/ha): 2.0
herbicidal rating ORYSAT (ORYSAT (Rice, Tebonnet); rate 0.0315 kg/ha): 2.0
herbicidal rating ORYSAT (ORYSAT (Rice, Tebonnet); rate 0.0630 kg/ha): 4.5
Preemergence herbicidal rating GALAP (GALAP (Galium) [2]; rate 0.0313 kg/ha): 1.0
Preemergence herbicidal rating GALAP (GALAP (Galium) [2]; rate 0.0625 kg/ha): 1.0
Preemergence herbicidal rating GALAP (GALAP (Galium) [2]; rate 0.1250 kg/ha): 7.0
Preemergence herbicidal rating GALAP (GALAP (Galium) [2]; rate 0.2500 kg/ha): 7.0
Preemergence herbicidal rating CASOB (CASOB (Sicklepod) [3]; rate 0.0313 kg/ha): 0.0
Preemergence herbicidal rating CASOB (CASOB (Sicklepod) [3]; rate 0.0625 kg/ha): 0.0
Preemergence herbicidal rating CASOB (CASOB (Sicklepod) [3]; rate 0.1250 kg/ha): 0.0
Preemergence herbicidal rating CASOB (CASOB (Sicklepod) [3]; rate 0.2500 kg/ha): 1.0
CYPIR herbicidal effect rating (CYPIR (Rice Flatsedge); 0.0313 kg/ha): 0.0
CYPIR herbicidal effect rating (CYPIR (Rice Flatsedge); 0.0625 kg/ha): 0.0
CYPIR herbicidal effect rating (CYPIR (Rice Flatsedge); 0.1250 kg/ha): 4.0
CYPIR herbicidal effect rating (CYPIR (Rice Flatsedge); 0.2500 kg/ha): 7.0
herbicidal rating SETVI (SETVI (Foxtail, Green); rate 0.0158 kg/ha): 1.0
herbicidal rating SETVI (SETVI (Foxtail, Green); rate 0.0315 kg/ha): 9.0
herbicidal rating SETVI (SETVI (Foxtail, Green); rate 0.0630 kg/ha): 9.0
herbicidal rating ECHCG (ECHCG (Barnyardgrass); rate 0.0158 kg/ha): 1.0
herbicidal rating ECHCG (ECHCG (Barnyardgrass); rate 0.0315 kg/ha): 1.0
herbicidal rating ECHCG (ECHCG (Barnyardgrass); rate 0.0630 kg/ha): 3.0
herbicidal rating CHEAL ([4]; rate 0.0158 kg/ha): 2.0
herbicidal rating CHEAL ([4]; rate 0.0315 kg/ha): 2.0
herbicidal rating CHEAL ([4]; rate 0.0630 kg/ha): 1.0
herbicidal rating CASOB (CASOB (Sicklepod) [5]; rate 0.0158 kg/ha): 0.0
herbicidal rating CASOB (CASOB (Sicklepod) [5]; rate 0.0315 kg/ha): 0.0
herbicidal rating CASOB (CASOB (Sicklepod) [5]; rate 0.0630 kg/ha): 0.0
herbicidal rating AMBEL (AMBEL (Ragweed, Common); rate 0.0158 kg/ha): 2.0
herbicidal rating AMBEL (AMBEL (Ragweed, Common); rate 0.0315 kg/ha): 2.0
herbicidal rating AMBEL (AMBEL (Ragweed, Common); rate 0.0630 kg/ha): 2.0
SAGPY herbicidal effect rating ([6]; 0.0313 kg/ha): 0.0
SAGPY herbicidal effect rating ([6]; 0.0625 kg/ha): 0.0
SAGPY herbicidal effect rating ([6]; 0.1250 kg/ha): 0.0
SAGPY herbicidal effect rating ([6]; 0.2500 kg/ha): 3.0
Preemergence herbicidal rating ZEAMX (ZEAMX (Corn, Field); rate 0.0313 kg/ha): 0.0
Preemergence herbicidal rating ZEAMX (ZEAMX (Corn, Field); rate 0.0625 kg/ha): 0.0
Preemergence herbicidal rating ZEAMX (ZEAMX (Corn, Field); rate 0.1250 kg/ha): 1.0
Preemergence herbicidal rating ZEAMX (ZEAMX (Corn, Field); rate 0.2500 kg/ha): 4.0
herbicidal rating GLXMAW ([7]; rate 0.0158 kg/ha): 4.5
herbicidal rating GLXMAW ([7]; rate 0.0315 kg/ha): 5.0
herbicidal rating GLXMAW ([7]; rate 0.0630 kg/ha): 5.5
